Laboratory results taken from ChEMBL document CHEMBL1201862, “PubChem BioAssay data set” (2004).
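Dose response: 5 concentrations. Exposure: 48 h. Format: 96-well plates. Endpoint: linear interpolation; highest concentration if not reached. GI50 = concentration required for 50% inhibition of growth.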 Activity calls are given as the source filed them. Cut-off read from the data, not from the text of the source: active = GI50 up to about 1.1 µM and inactive = higher.

Assays:
Assay in all cases: growth of human tumour cells (NCI), 48 h
RPMI-8226 = test system: RPMI-8226
SF-268 = test system: SF-268
OVCAR-8 = test system: OVCAR-8
SW-620 = test system: SW-620
HL-60 = test system: HL-60
KM-20L2 = test system: KM-20L2
MOLT-4 = test system: MOLT-4
RXF 393 = test system: RXF 393
TK-10 = test system: TK-10
SK-OV-3 = test system: SK-OV-3
SNB-75 = test system: SNB-75
M14 = test system: M14
786-0 = test system: 786-0
NCI-H226 = test system: NCI-H226
A549 = test system: A549
HT-29 = test system: HT-29
U-251 = test system: U-251
EKVX = test system: EKVX
RXF 631 = test system: RXF 631
HOP-92 = test system: HOP-92
SN12C = test system: SN12C
OVCAR-4 = test system: OVCAR-4
UACC-257 = test system: UACC-257
LXFL 529 = test system: LXFL 529
Malme-3M = test system: Malme-3M
SK-MEL-2 = test system: SK-MEL-2
NCI-H460 = test system: NCI-H460
CAKI-1 = test system: CAKI-1
SNB-78 = test system: SNB-78
COLO 205 = test system: COLO 205
DMS-114 = test system: DMS-114
HOP-18 = test system: HOP-18
OVCAR-3 = test system: OVCAR-3
UO-31 = test system: UO-31
K562 = test system: K562
M19-MEL = test system: M19-MEL
SNB-19 = test system: SNB-19
CCRF-CEM = test system: CCRF-CEM
XF498 = test system: XF498
SK-MEL-28 = test system: SK-MEL-28
KM12 = test system: KM12
DLD-1 = test system: DLD-1
ACHN = test system: ACHN
HCC 2998 = test system: HCC 2998
SK-MEL-5 = test system: SK-MEL-5
SR = test system: SR
DMS-273 = test system: DMS-273
OVCAR-5 = test system: OVCAR-5
NCI-H522 = test system: NCI-H522
SF-295 = test system: SF-295
HCT-116 = test system: HCT-116
LOX IMVI = test system: LOX IMVI
NCI-H23 = test system: NCI-H23
IGROV-1 = test system: IGROV-1
A498 = test system: A498
SF-539 = test system: SF-539
UACC-62 = test system: UACC-62
HOP-62 = test system: HOP-62
HCT-15 = test system: HCT-15

## O=C(OCc1ccccc1)n1cccc1
RPMI-8226
  GI50: 54.6 µM (inactive)
SF-268
  GI50: > 100 µM (inactive)
OVCAR-8
  GI50: > 100 µM (inactive)
SW-620
  GI50: > 100 µM (inactive)
HL-60
  GI50: 57.4 µM (inactive)
KM-20L2
  GI50: > 100 µM (inactive)
MOLT-4
  GI50: 76.9 µM (inactive)
RXF 393
  GI50: > 100 µM (inactive)
TK-10
  GI50: > 100 µM (inactive)
SK-OV-3
  GI50: > 100 µM (inactive)
SNB-75
  GI50: 31.8 µM (inactive)
M14
  GI50: > 100 µM (inactive)
786-0
  GI50: > 100 µM (inactive)
NCI-H226
  GI50: > 100 µM (inactive)
A549
  GI50: > 100 µM (inactive)
HT-29
  GI50: 65.9 µM (inactive)
U-251
  GI50: > 100 µM (inactive)
EKVX
  GI50: > 100 µM (inactive)
RXF 631
  GI50: > 100 µM (inactive)
HOP-92
  GI50: > 100 µM (inactive)
SN12C
  GI50: > 100 µM (inactive)
OVCAR-4
  GI50: > 100 µM (inactive)
UACC-257
  GI50: > 100 µM (inactive)
LXFL 529
  GI50: > 100 µM (inactive)
Malme-3M
  GI50: > 100 µM (inactive)
SK-MEL-2
  GI50: > 100 µM (inactive)
NCI-H460
  GI50: > 100 µM (inactive)
CAKI-1
  GI50: > 100 µM (inactive)
SNB-78
  GI50: > 100 µM (inactive)
COLO 205
  GI50: > 100 µM (inactive)
DMS-114
  GI50: 55.2 µM (inactive)
HOP-18
  GI50: > 100 µM (inactive)
OVCAR-3
  GI50: > 100 µM (inactive)
UO-31
  GI50: 46.3 µM (inactive)
K562
  GI50: 97.1 µM (inactive)
M19-MEL
  GI50: > 100 µM (inactive)
SNB-19
  GI50: > 100 µM (inactive)
CCRF-CEM
  GI50: > 100 µM (inactive)
XF498
  GI50: 78.2 µM (inactive)
SK-MEL-28
  GI50: > 100 µM (inactive)
KM12
  GI50: > 100 µM (inactive)
DLD-1
  GI50: > 100 µM (inactive)
ACHN
  GI50: > 100 µM (inactive)
HCC 2998
  GI50: > 100 µM (inactive)
SK-MEL-5
  GI50: > 100 µM (inactive)
SR
  GI50: 88.3 µM (inactive)
DMS-273
  GI50: > 100 µM (inactive)
OVCAR-5
  GI50: > 100 µM (inactive)
NCI-H522
  GI50: > 100 µM (inactive)
SF-295
  GI50: > 100 µM (inactive)
HCT-116
  GI50: 84.9 µM (inactive)
LOX IMVI
  GI50: > 100 µM (inactive)
NCI-H23
  GI50: 98.6 µM (inactive)
IGROV-1
  GI50: > 100 µM (inactive)
A498
  GI50: > 100 µM (inactive)
SF-539
  GI50: > 100 µM (inactive)
UACC-62
  GI50: > 100 µM (inactive)
HOP-62
  GI50: > 100 µM (inactive)

## CCC1CC2C(=O)N(c3ccccc3)C(=O)C2c2[nH]c3ccccc3c21 (stereo not drawn)
RPMI-8226
  GI50: 22.5 µM (inactive)
SF-268
  GI50: 24.5 µM (inactive)
OVCAR-8
  GI50: 12.2 µM (inactive)
HCT-15
  GI50: 60.8 µM
SW-620
  GI50: 46.1 µM (inactive)
HL-60
  GI50: 21.6 µM (inactive)
MOLT-4
  GI50: 20.2 µM (inactive)
RXF 393
  GI50: 21.5 µM (inactive)
TK-10
  GI50: 31.9 µM (inactive)
SK-OV-3
  GI50: 13.6 µM (inactive)
SNB-75
  GI50: 3.08 µM (inactive)
M14
  GI50: 17.1 µM (inactive)
786-0
  GI50: 18.9 µM (inactive)
NCI-H226
  GI50: 11.4 µM (inactive)
A549
  GI50: 24.6 µM (inactive)
HT-29
  GI50: 22.2 µM (inactive)
U-251
  GI50: 28.5 µM (inactive)
EKVX
  GI50: 23.2 µM (inactive)
RXF 631
  GI50: 13.3 µM (inactive)
SN12C
  GI50: 19.6 µM (inactive)
OVCAR-4
  GI50: 4.61 µM (inactive)
LXFL 529
  GI50: 20.2 µM (inactive)
Malme-3M
  GI50: 14.1 µM (inactive)
NCI-H460
  GI50: 15.8 µM (inactive)
SNB-78
  GI50: 26.6 µM (inactive)
COLO 205
  GI50: 22 µM (inactive)
DMS-114
  GI50: 13.9 µM (inactive)
HOP-18
  GI50: 14.3 µM (inactive)
OVCAR-3
  GI50: 15.7 µM (inactive)
UO-31
  GI50: 31.6 µM (inactive)
K562
  GI50: 25.4 µM (inactive)
M19-MEL
  GI50: 20.4 µM (inactive)
SNB-19
  GI50: 22.9 µM (inactive)
CCRF-CEM
  GI50: 26.9 µM (inactive)
XF498
  GI50: 16.7 µM (inactive)
SK-MEL-28
  GI50: 38.6 µM (inactive)
KM12
  GI50: 31.2 µM (inactive)
DLD-1
  GI50: 24 µM (inactive)
ACHN
  GI50: 20.2 µM (inactive)
HCC 2998
  GI50: 29.3 µM (inactive)
SK-MEL-5
  GI50: 30.8 µM (inactive)
SR
  GI50: 23.1 µM (inactive)
DMS-273
  GI50: > 10 µM (inactive)
OVCAR-5
  GI50: > 100 µM (inactive)
SF-295
  GI50: 7.19 µM (inactive)
LOX IMVI
  GI50: 17.1 µM (inactive)
NCI-H23
  GI50: 71.8 µM (inactive)
IGROV-1
  GI50: 6.43 µM (inactive)
A498
  GI50: 25.4 µM (inactive)
UACC-62
  GI50: 19.5 µM (inactive)
